Experimental data taken from PMC3070406 (The Pediatric infectious disease journal, 2011).
Values joined by “and” are separate entries in the source; they are usually repeats but may differ in a detail not shown here. Equal entries are not always repeated.

Legend:
[1] = tested on: NA of influenza A and B virus isolates; type: biochemical, influenza A and B viruses
[2] = tested on: influenza infection; parameters: species or system human; details: in vivo, po

`CC(=O)N[C@H]1[C@H]([C@H](O)[C@H](O)CO)OC(C(=O)O)=C[C@@H]1N=C(N)N` [zanamivir] was tested, and the Susceptibility to zanamivir [1] was “susceptible”.
In the case of `CCOC(=O)C1=C[C@@H](OC(CC)CC)[C@H](NC(C)=O)[C@@H](N)C1` [oseltamivir], the “duration of symptoms after commencing antiviral treatment (mean)” value [2] is reported as 33.0 ± 8.3 days and 26 ± 17.9 days.
